Experimental data published in patent US20230212202A1, “TREATMENT OF MGMT DEFICIENT CANCER WITH 2-FLUOROETHYL-SUBSTITUTED NITROSOUREAS AND OTHER COMPOUNDS” (YALE UNIVERSITY, priority 2021, published 2023).
Where “and” joins values, the source holds several entries; their conditions need not be identical. Equal entries are not always repeated. Where two headings read alike, the source gives them in different places.

Key:
[1] = tested on: LN229 human brain glioblastoma cells MGMT+ MMR+; experiment: Anticancer activity towards LN229 cells (Example 15); format: cell-based; details: read-out: MGMT+ MMR+ Activity
Experimental: (§1) LN229 quad cells were maintained in Dulbecco’s Modified Eagle Medium (DMEM) supplemented with 10% fetal bovine serum. Cells were plated into sterile black with glass bottom 384-well plates (Cellvis) at a concentration of 1,000 cells/well (20 µL total volume) using a MultiDrop (Thermo Fisher). Then, assay plates were centrifuged at 300 rpm for 2 seconds and incubated overnight in a 37° C. 5% CO2 incubator. Compounds were prepared as 100 mM stocks in DMSO and stored protected from light at -20′C until use. Prior to compound addition, the stock solutions of compound were diluted two-fold serially in DMSO from 100 mM down to 0.05 mM in a 384-well Source plate. Vehicle control wells containing DMSO and positive control wells containing 10 mM bortezomib were also added to the Source plate. An aliquot in the amount of 40 nL of compound stock solution or DMSO vehicle was transferred from the source plate to the cell assay plate using an Echo Acoustic dispense (Beckman). Three replicate dilution curves of each compound were run on each assay plate. An aliquot in the amount of 120 nL of a 10 mM bortezomib solution was transferred to the positive control wells resulting in a final concentration of 60 µM. The final concentration of compounds ranged from 200 µM to 0.1 µM (12-point, 2-fold dilution dose response curve), and the final DMSO concentration was 0.2%.
(§2) Assay plates were centrifuged at 500 rpm for 2 seconds and incubated for 120 hours at 37° C. in a humidified 5% CO2 incubator. Following incubation, cells were fixed with 4% paraformaldehyde and stained with DAPI for nuclei visualization. The images were acquired on the InCell 2200 high content imager (GE, now […]), and quantified using InCell Analyzer image analysis software. Z prime factor, signal-to-background and coefficient of variation were calculated for each assays plate using mean and standard deviation values of the negative (vehicle) and positive (bortezomib) control wells to ensure assay robustness. Raw cell count data for test compounds was normalized to percent viability relative to the DMSO vehicle control. Data was plotted in GraphPad Prism using a variable slope 4-parameter fit.

[2] = tested on: LN229 human brain glioblastoma cells MGMT+ MMR-; experiment: as above; format: cell-based; details: read-out: MGMT+ MMR -Activity
Experimental: as §1, §2

[3] = tested on: LN229 human brain glioblastoma cells MGMT- MMR-; experiment: as above; format: cell-based; details: read-out: MGMT -MMR-Activity
Experimental: as §1, §2

[4] = tested on: LN229 human brain glioblastoma cells MGMT- MMR+; experiment: as above; format: cell-based; details: read-out: MGMT -MMR + Activity
Experimental: as §1, §2

LN229 MGMT-/MMR- cells [5] = experiment: Short-term cell viability assay; format: cell-based, human; details: LN229 MGMT-/MMR- cells
[6] = tested on: LN229 MGMT+/-, MMR+/- cells; experiment: Short-term cell viability assay, four isogenic LN229 glioblastoma cell lines; format: cell-based, human
[7] = 37° C., pH 7.4; cited from earlier work
[8] = tested on: LN229 MGMT+/-, MMR+/- cells; experiment: Clonogenic survival assay; format: cell-based, human
Experimental: Clonogenic Cell Survival Assay. Cells were trypsinized, washed, counted, and diluted in a medium containing various concentrations of drug. They were then immediately seeded in six-well plates in triplicate at three-fold dilutions, ranging from 9000 to 37 cells per well. Depending on colony size, these plates were kept in the incubator for 10 to 14 days. After incubation, colonies were washed in phosphate-buffered saline (PBS), stained with crystal violet, counted, and quantified.

[9] = tested on: DLD1 BRCA2+/- and BRCA2-/- cells; experiment: Short-term viability assay with or without O6BG; format: cell-based, human; details: for sensitivity of BRCA2-/- cells: DLD1, ±O6BG; for therapeutic index (TI), ratio of IC50 values in MGMT+/BRCA2+ cells compared to MGMT-/BRCA2- cells: DLD1 isogenic model
[10] = tested on: PEO4 (BRCA2+) and PEO1 (BRCA2-/-) cells; experiment: Short-term viability assay with or without O6BG; format: cell-based, human; details: for therapeutic index (TI): PEO1/4 model; for sensitivity of BRCA2-/- cells: PEO1/PEO4, ±O6BG
LN229 MGMT-/MMR+ cells = experiment: IR alkaline comet assay; format: cell-based, human
[11] = tested on: PD20 cells, FANCD2-/- or +FANCD2; experiment: Short-term viability assay; format: cell-based, human; details: PD20 FANCD2-/- vs +FANCD2
[12] = tested on: linearized pUC19 plasmid DNA; experiment: Melting temperature assay; format: biochemical; details: 100 or 500 µM, 3 h
LN229 MGMT-/MMR- cells [13] = experiment: IR alkaline comet assay; format: cell-based, human; details: 200 µM, 2-24 h
[14] = tested on: LN229 MGMT-/MMR- flank tumors; experiment: Xenograft flank tumor model; format: in vivo, mouse; details: 5 mg/kg MWF × 3 weeks
[15] = tested on: HCT116 MLH1-/- cells or HCT116 +Chr3 cells; experiment: Short-term viability assay with or without O6BG; format: cell-based, human
Excerpt: (§3) Short-term Cell Viability Assay.

[16] = tested on: DLD1 MSH6-deficient cells; experiment: Short-term viability assay with or without O6BG; format: cell-based, human; details: with or without O6BG-induced MGMT depletion
Excerpt: as §3

[17] = Homo sapiens, LN-229, 120 hours

## O=NN(CCF)C(=O)NCCCl
[1]; Homo sapiens, LN-229, 120 h
  IC50: > 90 µM
[2]; Homo sapiens, LN-229, 120 h
  IC50: > 90 µM
[3]; Homo sapiens, LN-229, 120 h
  IC50: < 50 µM
[4]; Homo sapiens, LN-229, 120 h
  IC50: 50 to 90 µM

## O=NN(CCF)C(=O)NC1CCCCC1
[1]; [17]
  IC50: > 90 µM
[2]; [17]
  IC50: 50 to 90 µM
[3]; [17]
  IC50: < 50 µM
[4]; [17]
  IC50: < 50 µM

## CCOP(=O)(OCC)C(C)NC(=O)N(CCF)N=O (centres unmarked)
[1]; 120 hours
  IC50: > 90 µM
[2]; 120 hours
  IC50: > 90 µM
[3]; 120 hours
  IC50: < 50 µM
[4]; 120 hours
  IC50: > 90 µM

## Cc1ncc(CNC(=O)N(CCF)N=O)c(N)n1
[1]; [17]
  IC50: > 90 µM
[2]; [17]
  IC50: > 90 µM
[3]; Homo sapiens, LN-229, 120 h
  IC50: < 50 µM
[4]; [17]
  IC50: > 90 µM

## CC(F)CN/N=N/c1[nH]cnc1C(N)=O (centres unmarked) [Compound 10]
LN229 MGMT-/MMR- cells [5]
  potency in MGMT-/MMR- cells: reduced potency

## NC(=O)c1nc[nH]c1/N=N/NCCCF [Compound 11]
[6]; MGMT+/-, MMR+/-
  activity in the four LN229 cell lines: low activity in all four cell lines

## Nc1nc(OCCF)c2ncn([C@@H]3O[C@H](CO)[C@@H](O)[C@H]3O)c2n1 [Compound S1, O^6-(2-fluoroethyl)guanosine]
[7]
  half-life of hydrolysis: 18.5 h and ~ 18.5 h

## Nc1nc(OCCCl)c2ncn([C@@H]3O[C@H](CO)[C@@H](O)[C@H]3O)c2n1 [Compound S4, O^6-(2-chloroethyl)guanosine]
[7]
  half-life of hydrolysis: ~ 18 min

## O=NN(CCCl)C(=O)NC1CCCCC1 [Lomustine, lomustine, reference compound]
[8]; LN229 MGMT+ cells
  clonogenic survival, MGMT+ cells: cytotoxic to MGMT+ cells
[8]; LN229 MGMT- cells, MMR+/-
  clonogenic survival, MGMT- cells: effective in MMR- cells

## CO[C@@]12[C@H](COC(N)=O)C3=C(C(=O)C(C)=C(N)C3=O)N1C[C@@H]1N[C@@H]12 [MMC, Mitomycin C]
[9]
  sensitivity of BRCA2-/- cells: hypersensitivity of DLD1 BRCA2-/- cells to crosslinking agents independent of MGMT depletion
  therapeutic index (TI), ratio of IC50 values in MGMT+/BRCA2+ cells compared to MGMT-/BRCA2- cells: 26 fold
[10]
  therapeutic index (TI): 7 fold
  sensitivity of BRCA2-/- cells: hypersensitivity of PEO4 BRCA2-/-cells to crosslinking agents independent of MGMT depletion
LN229 MGMT-/MMR+ cells; 0.1 µM, 24 h
  IR-induced comet tail (ICL detection): partial reduction in the IR-induced comet tail
LN229 MGMT-/MMR+ cells; 50 µM, 2 h
  IR-induced comet tail (ICL detection): completely abolished the IR-induced comet tail
LN229 MGMT-/MMR+ cells; TMZ, KL-50 200 µM, MMC 0.1 or 50 µM
  comet tailing in the absence of IR: did not
[11]
  sensitivity of FANCD2-deficient cells: hypersensitivity to crosslinking agents in FANCD2-/-cells

## COS(C)(=O)=O [MMS, Methylmethane sulfonate, reference compound]
[12]
  DNA melting temperature: comparable changes in measured DNA melting temperature

## NC(=O)c1ncn2c(=O)n(CCCl)nnc12 [MTZ, mitozolomide, reference compound]
[6]; LN229, listed as 12a
  selectivity for MGMT-deficient cells: ~ 7 fold
LN229 MGMT-/MMR- cells [13]; 0 Gy
  DNA damage in unirradiated samples, time course: maximal damage at 2 h
LN229 MGMT-/MMR- cells [13]; 10 Gy
  DNA mobility after IR, time course: reduced DNA mobility within 2 h

## Cn1nnc2c(C(N)=O)ncn2c1=O [TMZ, temozolomide, reference compound]
[14]; P.O.
  tumor growth: no efficacy
[14]; Kaplan-Meier
  median OS: 10 weeks
[15]
  activity in HCT116 cells: inactive
[16]
  activity in DLD1 cells: inactive
LN229 MGMT-/MMR- cells [5]; Homo sapiens, LN-229, read-out: IC50
  IC50: 838 µM

## N.N.[Cl][Pt][Cl] [cisplatin]
[9]
  sensitivity of BRCA2-/- cells: hypersensitivity of DLD1 BRCA2-/- cells to crosslinking agents independent of MGMT depletion
  therapeutic index (TI), ratio of IC50 values in MGMT+/BRCA2+ cells compared to MGMT-/BRCA2- cells: 42 fold
[10]
  therapeutic index (TI): 13 fold
  sensitivity of BRCA2-/- cells: hypersensitivity of PEO4 BRCA2-/-cells to crosslinking agents independent of MGMT depletion
[11]
  sensitivity of FANCD2-deficient cells: hypersensitivity to crosslinking agents in FANCD2-/-cells
